The subject of this assay is H1 human embryonic stem cells. Briefly: Step-wise differentiation, high content analysis of SOX17, PDX1, CDX2, insulin, glucagon (Example 12). The class given is cell-based. Here is the method: The assay was initiated by aspirating the culture medium from each well and adding back an aliquot (0.5 ml) of test medium. Test conditions for the first step of differentiation were conducted over a three-day period, feeding daily by aspirating and replacing the medium from each well with fresh test medium. On the first day of assay, 100 ng/ml activin A (PeproTech; Cat #120-14) or 200 ng/ml GDF-8 (R&D Systems, Cat #788-G8) was added to respective assay wells where each growth factor was diluted into RPMI-1640 medium (Invitrogen; Cat #22400) with 1% Albumin Bovine Fraction V, Fatty Acid Free (FAF BSA) (MP Biomedicals, Inc; Cat 152401), 1% Probumin (Millipore; Cat #81-068-3) and 20 ng/ml Wnt3a (R&D Systems; Cat #1324-WN/CF). On the second day of assay, 100 ng/ml activin A or 200 ng/ml GDF-8 was diluted into RPMI-1640 medium supplemented with 2% FAF BSA without Wnt3a. In some test samples using GDF-8, Wnt3a was replaced with a either Compound 34 or Compound 56 at a concentration of 2.5 μM, and either Compound 34 or Compound 56 was added daily during all three days of definitive endoderm differentiation. At the conclusion of the first step of differentiation, cells from some wells were harvested for flow cytometry analysis to evaluate levels of CXCR4, a marker of definitive endoderm formation. […]

This is an account of results in US9593305B2, “Differentiation of pluripotent stem cells” (Janssen Biotech, Inc., priority 2008, dated 2017).

On to “GDF-8: growth factor GDF-8, also known as myostatin, member of the TGF-β family”, for which, under “GDF-8 versus activin A treatment groups in step 1”, the “normalized protein levels of insulin and glucagon after step 5” value was “equivalent expression between the Activin A and GDF-8 treatment groups”. The “normalized Pdx1 and Cdx2 protein expression after step 3” value (GDF-8 with Wnt3a or with a compound in step 1) was “equivalent levels of PDX1 and CDX2”.
